# Test system: interferon-alpha
# Test: Sensitization by a first danger signal to a subsequent Protamine-RNA injection, serum interferon-alpha (ELISA)
# Type: in vivo, mice
# Conditions: first injection: 50 micrograms CpG, 10 micrograms imiquimod, 2 micrograms dsRNA or 10 micrograms RNA in particles, then 10 micrograms RNA in Protamine particles, sera 3 h after second injection, vs single Protamine-RNA injection
# Protocol: The DNA oligonucleotide “CpG 1585” (invivogen) which is a mouse TLR9 agonist was diluted at 0.5 micrograms per microlitre in PBS. Imiquimod (invivogen) was diluted to 0.1 microgram per microliter in PBS. RNA (mRNA coding for firefly luciferase) and Protamine were diluted to 0.5 mg/ml using pure water. Hundred micrograms RNA (200 microliters) were mixed with hundred micrograms Protamine IPEX (200 microliters) thereby generating approximately 100 nm particles. Forty percent Glucose was added to reach 5% glucose final and 5% Glucose was added so that the final injectable solution contains 10 micrograms RNA (and 10 micrograms Protamine) in 70 microliters.
# Mice were injected intravenous with 100 microliters of CpG (50 micrograms DNA “CpG(2h)PR11”) or 100 microliters of imiquimod (10 micrograms Imiquimod “Imi(2h)PR11”) or 70 microliters of Protamine-RNA particles (10 micrograms RNA “PR11(2h)PR11”) and 2 hours later all received 70 microliters of Protamine-RNA (10 micrograms RNA) intravenous. Three mice per group. Sera were drawn 3 hours after this second injection. As controls, mice were injected intravenous with 100 microliters of CpG (50 micrograms “CpG alone”) or 100 microliters of imiquimod (10 micrograms “Imi alone”) or 70 microliters of Protamine-RNA particles (10 micrograms RNA “PR11 alone”). Three mice per group. […] Interferon-alpha was measured in sera using Verikine™ ELISA kit from PBL. […]
compound,measurement,setting,value
CC(C)Cn1cnc2c(N)nc3ccccc3c21 [Imiquimod],interferon-alpha in serum when given i.v. as first injection 2 h before Protamine-RNA particles,,can sensitize the immune system to produce an enhanced amount of interferon-alpha
same,interferon-alpha in serum when given i.v. as first injection 2 h before Protamine-RNA particles,listed as imiquimod,strong (synergistic) interferon production

# Source: patent US20220347308A1, “METHODS AND MEANS FOR INDUCING AN IMMUNE RESPONSE” (BIONTECH AG, priority 2015, published 2022)
